According to US12448369B2 (Edgewise Therapeutics, Inc., priority 2023, dated 2025):
Marks after values point to notes of the source that are not given here.

Tests used:
[1] = system: Rabbit Psoas myofibrils (skeletal myosin ATPase); test: Myofibril ATPase assay, rabbit psoas (skeletal) myofibrils; format: biochemical; conditions: rabbit psoas myofibrils
Outline: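 Values derive from concentration–response fits of NADH consumption rates at 340 nm, normalized to vehicle-only wells, as Y75 or Y125. Myofibril ATP turnover was linked to NADH via PK/LDH in Ca/EGTA-buffered PIPES, pH 7.0, and read over 75 min.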

[2] = system: Porcine atria myofibrils (atrial myosin ATPase); test: Myofibril ATPase assay, porcine atria myofibrils; format: biochemical; conditions: porcine atria myofibrils
Outline: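 Atrial myofibril ATPase measured by NADH-coupled absorbance at 340 nm; vehicle-normalized slopes fitted to give Y75 or Y125 values.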

[3] = biological target: T1, Porcine ventricle myofibrils (ventricular myosin ATPase) (Sus scrofa, UniProt P79293); test: Myofibril ATPase assay, porcine ventricle myofibrils; format: biochemical, porcine (Yucatan minipigs); conditions: porcine ventricle myofibrils
T1 construct: Myofibrils from porcine cardiac muscle was isolated from the left ventricle of Yucatan minipigs; tissue Exemplar Genetics; host or cells: left ventricle of Yucatan minipigs, myofibrils prepared in house
T1 sequence (P79293 whole entry): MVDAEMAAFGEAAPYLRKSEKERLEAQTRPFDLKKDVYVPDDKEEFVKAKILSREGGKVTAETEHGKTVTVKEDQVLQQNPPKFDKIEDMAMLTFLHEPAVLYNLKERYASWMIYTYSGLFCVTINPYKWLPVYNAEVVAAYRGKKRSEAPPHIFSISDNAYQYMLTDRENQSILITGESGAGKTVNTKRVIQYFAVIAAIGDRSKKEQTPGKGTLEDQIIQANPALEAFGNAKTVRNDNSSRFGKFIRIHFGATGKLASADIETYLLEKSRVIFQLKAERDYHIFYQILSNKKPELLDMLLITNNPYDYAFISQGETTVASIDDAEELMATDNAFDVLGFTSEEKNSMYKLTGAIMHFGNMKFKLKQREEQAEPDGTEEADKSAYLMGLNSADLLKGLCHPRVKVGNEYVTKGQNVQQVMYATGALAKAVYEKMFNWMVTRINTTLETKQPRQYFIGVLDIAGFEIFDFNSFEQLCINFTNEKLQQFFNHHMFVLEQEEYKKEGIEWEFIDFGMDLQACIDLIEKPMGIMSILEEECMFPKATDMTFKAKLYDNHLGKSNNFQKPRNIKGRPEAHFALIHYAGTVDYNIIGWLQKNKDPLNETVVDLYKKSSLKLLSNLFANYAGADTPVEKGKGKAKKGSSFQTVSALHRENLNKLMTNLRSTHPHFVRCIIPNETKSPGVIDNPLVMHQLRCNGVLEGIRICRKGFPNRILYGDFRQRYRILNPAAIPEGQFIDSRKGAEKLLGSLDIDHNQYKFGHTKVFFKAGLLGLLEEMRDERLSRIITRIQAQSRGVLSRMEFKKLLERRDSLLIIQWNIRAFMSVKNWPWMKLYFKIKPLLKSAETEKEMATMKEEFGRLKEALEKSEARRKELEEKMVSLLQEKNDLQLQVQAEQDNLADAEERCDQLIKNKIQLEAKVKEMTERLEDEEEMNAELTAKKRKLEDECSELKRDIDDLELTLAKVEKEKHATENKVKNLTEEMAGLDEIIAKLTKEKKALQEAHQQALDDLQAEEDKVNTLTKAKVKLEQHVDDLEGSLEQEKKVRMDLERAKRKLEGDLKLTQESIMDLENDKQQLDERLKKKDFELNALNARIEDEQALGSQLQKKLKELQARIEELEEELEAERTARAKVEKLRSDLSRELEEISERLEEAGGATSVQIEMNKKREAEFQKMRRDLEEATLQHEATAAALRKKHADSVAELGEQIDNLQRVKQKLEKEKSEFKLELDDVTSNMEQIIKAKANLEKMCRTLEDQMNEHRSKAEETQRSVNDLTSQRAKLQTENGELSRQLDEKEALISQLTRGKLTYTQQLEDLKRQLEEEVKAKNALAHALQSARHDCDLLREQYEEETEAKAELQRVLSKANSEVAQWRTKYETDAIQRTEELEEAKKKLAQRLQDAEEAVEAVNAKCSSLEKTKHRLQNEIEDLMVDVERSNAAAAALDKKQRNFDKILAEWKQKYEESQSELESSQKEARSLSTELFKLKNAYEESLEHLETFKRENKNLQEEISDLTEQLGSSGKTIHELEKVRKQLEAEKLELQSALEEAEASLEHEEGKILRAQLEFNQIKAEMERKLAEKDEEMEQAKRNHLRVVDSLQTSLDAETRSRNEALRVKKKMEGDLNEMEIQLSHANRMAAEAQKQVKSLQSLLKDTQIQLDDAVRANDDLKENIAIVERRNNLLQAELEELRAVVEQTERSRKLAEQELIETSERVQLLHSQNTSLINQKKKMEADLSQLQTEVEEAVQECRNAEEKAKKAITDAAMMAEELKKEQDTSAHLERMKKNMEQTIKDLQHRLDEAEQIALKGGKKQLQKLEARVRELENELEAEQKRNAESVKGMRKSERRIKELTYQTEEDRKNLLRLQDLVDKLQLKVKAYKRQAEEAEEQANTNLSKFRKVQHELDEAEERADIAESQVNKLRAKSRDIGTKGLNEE
Outline: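 Myofibrils isolated from Yucatan minipig left ventricle; coupled PK/LDH NADH assay, pCa buffer pH 7.0, kinetic A340 reads over 75 min. Vehicle-normalized slopes fit 4PL; Y75/Y125 derived.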

[4] = Y75 value (75% activity relative to no compound)
[5] = ‡ Y125 value, not a Y75 value (125% activity relative to no compound)

| SMILES | Skeletal EC25 ([1]; Y75 value (no ‡ mark)) [µM] | Atrial EC25 ([2]; Y75 value (no ‡ mark)) [µM] | Ventricular EC25 ([3]; Y75 value (no ‡ mark)) [µM] | Skeletal EC25 ([1]; Y75 value) [µM] | Atrial EC25 [2, 4] [µM] | Ventricular EC25 ([3]; Y75 value) [µM] | further results |
| --- | --- | --- | --- | --- | --- | --- | --- |
| Cc1c(CC(=O)N[C@@H](C)c2ccc(C#N)cc2F)c(=O)[nH]c2ccc(F)c(F)c12 [compound 66] | 0.01 | 0.05 | 0.06 | – | – | – | – |
| C[C@H](NC(=O)[C@@H](C)c1cc2c(Cl)c(O)ccc2[nH]c1=O)c1ccc(F)cc1F (single isomer, unassigned) [compound 88] | 74.46 | 83.97 | 88.39 | – | – | – | – |
| C[C@H](NC(=O)Cc1c(C(F)F)c2cc(F)ccc2[nH]c1=O)c1ccc(F)cc1F [compound 106] | 0.04 | 0.05 | 0.20 | – | – | – | – |
| Cc1c(CC(=O)N[C@@H](C)c2ccc(C#N)cn2)c(=O)[nH]c2cc(F)c(F)cc12 [compound 1113] | 0.47 | 0.97 | 2.55 | – | – | – | – |
| Cc1c(CC(=O)N[C@H](C)c2ccc(C#N)cc2F)c(=O)[nH]c2cnnc(C#N)c12 [compound 171] | – | – | – | 15.02 | 22.46 | 100.00 | – |
| Cc1nccc2[nH]c(=O)c(CC(=O)N[C@H]3c4c(F)cc(F)cc4OC3(C)C)c(C)c12 (single isomer, unassigned) [compound 189] | – | – | – | 0.87 | 1.22 | 13.14 | – |
| Cc1c(CC(=O)N[C@H](C)c2ncc(F)cc2F)c(=O)[nH]c2ccc(F)c(C(F)(F)F)c12 [compound 9] | 0.65 | 3.29 | 0.92 | – | – | – | – |
| C[C@H](NC(=O)[C@@H](C)c1c(C(F)(F)F)c2cnccc2[nH]c1=O)c1ccc(F)cc1F (single isomer, unassigned) [compound 426] | – | – | – | 12.74 | 4.84 | 66.84 | – |
| Cc1c(C(F)(F)C(=O)NC(C)c2cccc(C#N)n2)c(=O)[nH]c2ccc(F)c(F)c12 (single isomer, unassigned) [Compound 2588] | – | 100.00 | – | – | – | – | Skeletal EC25 [1, 5]: 19.03‡ μM; Ventricular EC25 [3, 5]: 67.27‡ μM |
| Cc1c(F)ccc2[nH]c(=O)c(CC(=O)N[C@@H](C)c3ncc(C#N)cc3F)c(C#N)c12 [compound 1150] | 0.04 | 0.05 | 0.05 | – | – | – | – |
| Cc1nccc2[nH]c(=O)c([C@@H](C)C(=O)N[C@@H](C)c3ncc(C#N)cc3F)c(C)c12 (single isomer, unassigned) [compound 193] | – | – | – | 0.75 | 0.47 | 5.94 | – |
| Cc1cc([C@H](C)NC(=O)Cc2cc3c(C#N)nccc3[nH]c2=O)ncc1F [compound 471] | – | – | – | 100.00 | 100.00 | 67.58 | – |
| Cc1c(CC(=O)N[C@@H](C)c2ccc(F)cc2F)c(=O)[nH]c2ccnc(C(F)(F)F)c12 [compound 377] | – | – | – | 0.01 | 0.06 | 0.29 | – |
| C[C@H](NC(=O)Cc1cc2nc(C(F)(F)F)ccc2[nH]c1=O)c1ccc(F)cc1F [compound 397] | – | – | – | 1.87 | 100.00 | 32.40 | – |
| C[C@@H](NC(=O)Cc1c(C(F)(F)F)c2c(C3CC3)nccc2[nH]c1=O)c1ccc(C#N)nn1 (single isomer, unassigned) [compound 3003] | – | – | – | – | – | 100.00 | Skeletal EC25 (Y125 value, marked ‡) ([1]; Y125 value, not a Y75 value): 94.25‡ μM; Atrial EC25 (Y125 value, marked ‡) ([2]; Y125 value (125% activity), not a Y75 value): 92.51‡ μM |
| Cc1c(C(F)(F)C(=O)N[C@H](C)c2ncc(C#N)cc2F)c(=O)[nH]c2cccc(C#N)c12 (single isomer, unassigned) [compound 2501] | 0.15 | 0.17 | 0.45 | – | – | – | – |

| SMILES | Skeletal EC25 ([1]; Y75 value (no ‡ mark)) [µM] | Atrial EC25 ([2]; Y75 value (no ‡ mark)) [µM] | Ventricular EC25 ([3]; Y75 value (no ‡ mark)) [µM] | Skeletal EC25 ([1]; Y75 value) [µM] | Atrial EC25 [2, 4] [µM] | Ventricular EC25 ([3]; Y75 value) [µM] | further results |
| --- | --- | --- | --- | --- | --- | --- | --- |
| Cc1cc([C@@H](C)NC(=O)Cc2c(O)c3c(C)c(F)ccc3[nH]c2=O)ncc1F [compound 1116] | 100.00 | 100.00 | 100.00 | – | – | – | – |
| Cc1c(CC(=O)N[C@@H](C)c2ncc(C#N)cc2F)c(=O)[nH]c2cccc(F)c12 [compound 52] | 0.02 | 0.06 | 0.10 | – | – | – | – |
| Cc1c(CC(=O)N[C@@H]2CCc3cc(C#N)cnc32)c(=O)[nH]c2ccc(F)cc12 [compound 1092] | 0.36 | 1.13 | 2.41 | – | – | – | – |
| Cc1c(CC(=O)N[C@H](C)c2ncc(C#N)cc2F)c(=O)[nH]c2ccc(F)c(C#N)c12 [compound 31] | 0.06 | 0.10 | 0.16 | – | – | – | – |
| C[C@H](NC(=O)C1(c2cc3c(F)c(F)ccc3[nH]c2=O)CC1)c1cc(C#N)ccn1 (single isomer, unassigned) [compound 2584] | – | 100.00 | – | – | – | – | Skeletal EC25 [1, 5]: 100.00‡ μM; Ventricular EC25 [3, 5]: 100.00‡ μM |
| Cc1c(F)ccc2[nH]c(=O)c(C(F)(F)C(=O)N[C@@H](C)c3ncc(C#N)cc3F)c(C)c12 (single isomer, unassigned) [compound 4812] | 0.05 | 0.19 | 0.18 | – | – | – | – |
| Cc1c(CC(=O)N[C@H](C)c2ncc(C#N)cc2F)c(=O)[nH]c2ccc(O)nc12 [compound 165] | – | – | – | 47.80 | 2.77 | 100.00 | – |
| Cc1nccc2[nH]c(=O)c(C(F)(F)C(=O)N[C@H](C)c3cnc(C#N)cn3)c(C)c12 (single isomer, unassigned) [compound 3520] | – | – | – | 0.25 | 2.38 | 4.50 | – |
| Cc1c(CC(=O)N[C@@H](CO)c2ccc(C#N)cc2F)c(=O)[nH]c2ccnc(OC3CC3)c12 [compound 204] | – | – | – | 0.07 | 0.47 | 7.78 | – |
| Cc1cc2[nH]c(=O)c(CC(=O)N[C@@H](C)c3ccc(F)cc3F)c(C)c2cn1 [compound 446] | – | – | – | 4.59 | 100.00 | 100.00 | – |
| Cc1nccc2[nH]c(=O)c(C(F)(F)C(=O)N[C@@H](CO)c3ncc(C#N)cc3F)c(C)c12 (single isomer, unassigned) [compound 3523] | – | – | – | 8.73 | 9.76 | 21.66 | – |
| Cc1c(C2(C(=O)N[C@@H](C)c3cc(C#N)ccn3)CC2)c(=O)[nH]c2ccc(F)c(F)c12 (single isomer, unassigned) [compound 2540] | 0.96 | – | 100.00 | – | – | – | Atrial EC25 [2, 5]: 100.00‡ μM |
| Cc1nccc2[nH]c(=O)c(CC(=O)N[C@H](C)c3ccc(C#N)cn3)c(C)c12 (single isomer, unassigned) [compound 253] | – | – | – | 100.00 | 100.00 | 100.00 | – |
| CCc1c(CC(=O)N[C@H](C)c2ncc(C#N)cn2)c(=O)[nH]c2ccc(F)c(C)c12 (single isomer, unassigned) [compound 2001] | 0.27 | 0.33 | 0.49 | – | – | – | – |
| C[C@@H](NC(=O)Cc1cc2c(F)c(F)ccc2[nH]c1=O)c1ccc(C#N)cn1 [compound 17] | 0.43 | 0.09 | 1.56 | – | – | – | – |
| Cc1c(CC(=O)N[C@@H](C)c2ccc(C#N)cn2)c(=O)[nH]c2ccc(F)c(C#N)c12 [compound 50] | 0.02 | 0.05 | 0.23 | – | – | – | – |
